Legend:
Format in all cases: in vivo, human
[1] = system: progressive corneal ulcer caused by pemphigoid; assay: Patient case, FK506 eye drops (Example 3); details: 0.06% FK506 eye drops three times a day, one patient
Text: A patient suffering from progressive corneal ulcer caused by pemphigoid was instilled with 0.06% FK506 eye drops three times a day.

Thygeson keratitis = assay: Patient case, FK506 eye drops (Example 6); details: 0.06% FK506 eye drops three times a day
[2] = system: chronic nummular keratitis; assay: Patient case, FK506 eye drops (Example 5); details: 0.06% FK506 eye drops three times a day, one patient
Text: A patient suffering from chronic nummular keratitis was instilled with 0.06% FK506 eye drops three times a day.

[3] = system: penetrating keratoplasty due to keratoconus; assay: Patient case, FK506 eye drops after penetrating keratoplasty due to keratoconus (Example 9); details: 0.06% FK506 eye drops three times a day
[4] = system: inflammations caused by foreign bodies (cat hair, cat dander, pollens of a tree, ragweed or grass) instilled in the eye; assay: Itching on the eye after ocular instillation of foreign bodies, 3 hours after FK506 eye drops (Example 1); details: foreign bodies 3 hours after instillation, graded 5 minutes later, score 0-4, FIG. 1
Text: In a total of four groups each having 30 persons, FK506 eye drops (0.01%, 0.06% and 0.1%) were instilled in the respective experimental groups, and placebo was instilled in the control group. Three hours after the ocular instillation, various foreign bodies (cat hair, cat dander, and pollens of a tree, ragweed or grass) were ocularly instilled in both the experimental groups and the control group, thus causing inflammations. Five minutes later, itching on the eye was graded according to five-rank scores (0-4). The decreases from the score (baseline) in instilling only foreign bodies were calculated.

[5] = system: inflammations caused by injury after penetrating keratoplasty, history of steroid glaucoma and chronic rejection; assay: Patient case, FK506 eye drops after penetrating keratoplasty (Example 7); details: 0.06% FK506 eye drops three times a day
Text: As a result, the progression of inflammations caused by injury was arrested and such effects were maintained at 34 weeks later.

[6] = system: blepharokeratoconjunctivitis; assay: Patient case, FK506 eye drops (Example 8); details: 0.06% FK506 eye drops three times a day
[7] = system: inflammations caused by foreign bodies (cat hair, cat dander, pollens of a tree, ragweed or grass) instilled in the eye; assay: Conjunctival hyperemia and chemosis after ocular instillation of foreign bodies, 16 hours after final instillation (Example 2); details: 0.1% FK506 eye drops once a day for one week
Method: FK506 was ocularly instilled in the subjects once a day for one week, and the same amount of placebo was ocularly instilled in the control group. At 16 hours after the final ocular instillation, various foreign bodies (cat hair, cat dander, and pollens of a tree, ragweed or grass) were ocularly instilled in both the experimental groups and the control group, thus causing the inflammations. Ten minutes later, conjunctival hyperemia and chemosis were graded according to five-rank scores (0-4). The changes from the score (baseline) in instilling only foreign bodies were calculated.

[8] = system: progressive Mooren's ulcer; assay: Patient case, FK506 eye drops (Example 4); details: 0.06% FK506 eye drops three times a day, one patient
Text: A patient suffering from progressive Mooren's ulcer was instilled with 0.06% FK506 eye drops three times a day.

[9] = one patient without conventional therapy

Compound: C=CC[C@@H]1/C=C(\C)C[C@H](C)C[C@H](OC)[C@H]2O[C@@](O)(C(=O)C(=O)N3CCCC[C@H]3C(=O)O[C@H](/C(C)=C/[C@@H]3CC[C@@H](O)[C@H](OC)C3)[C@H](C)[C@@H](O)CC1=O)[C@H](C)C[C@@H]2OC [FK506, 17-allyl-1,14-dihydroxy-12-[2-(4-hydroxy-3-methoxycyclohexyl)-1-methylvinyl]-23,25-dimethoxy-13,19,21,27-tetramethyl-11,28-dioxa-4-azatricyclo [22.3.1.0^4,9]octacos-18-ene-2,3,10,16-tetraone]
- improving effects [1]: significant improving effects were observed
- time at which effects were maintained [1]: 43 weeks
- time at which effects were maintained (Thygeson keratitis; one patient): 41 weeks
- time until improving effects were observed (Thygeson keratitis; one patient): three
- improving effects (Thygeson keratitis; [9]): significant improving effects were observed
- improving effects [2]: significant improving effects were observed
- time at which effects were maintained [2]: 43 weeks
- time until improving effects were observed [2]: two
- time at which effects were maintained ([3]; one patient): 25 weeks
- improving effects [3, 9]: significant improving effects were observed
- decreases of itching score from the baseline, compared with placebo ([4]; 0.01% FK506 eye drops): decreases of itching were greater
- decreases of itching score from the baseline, compared with placebo ([4]; 0.06% FK506 eye drops): decreases of itching were greater
- decreases of itching score from the baseline, compared with placebo ([4]; 0.1% FK506 eye drops): decreases of itching were greater
- progression of inflammations caused by injury ([5]; one patient): arrested
- time at which effects were maintained ([5]; one patient): 34 weeks
- intraocular pressure increase ([5]; patient with history of steroid glaucoma): no intraocular pressure increase was observed
- time at which effects were maintained ([6]; one patient): 18 weeks
- time until improving effects were observed ([6]; one patient): two
- improving effects [6, 9]: significant improving effects were observed
- duration of ocular anti-inflammatory effects (antiedemic effect and anti-flare effect) [7]: at least 16 hours
- Changes of chemosis scores from the baseline, mean ± S.E. ([7]; challenge 16 hours after final instillation, graded 10 minutes later, score 0-4, p < 0.001): −0.30 ± 0.07
- Changes of conjunctival hyperemia scores from the baseline, mean ± S.E. ([7]; challenge 16 hours after final instillation, graded 10 minutes later, score 0-4, p < 0.01): −0.51 ± 0.07
- improving effects [8]: significant improving effects were observed
- time at which effects were maintained [8]: 41 weeks

From US20020187998A1, “Local ophthalmic agent for treatment of ocular inflammation” (Sucampo AG, priority 2001, published 2002)
